Earlier results in patent publication US6696084B2 (RTP Pharma Inc., priority 2000, dated 2004).

Tests used:
[1] = oral administration with or without food

SMILES: CC[C@H](C)C(=O)O[C@H]1C[C@@H](C)C=C2C=C[C@H](C)[C@H](CC[C@@H]3C[C@@H](O)CC(=O)O3)[C@H]21 [Lovastatin]
- solubility in acetonitrile: sparingly soluble
- solubility in ethanol: sparingly soluble
- solubility in methanol: sparingly soluble
- solubility in water: insoluble

SMILES: COCc1c(C(C)C)nc(C(C)C)c(/C=C/[C@@H](O)C[C@@H](O)CC(=O)O)c1-c1ccc(F)cc1 [Cerivastatin]
- food effect on absorption / uptake [1]: not sensitive to a food effect
- solubility in acetone: very slightly soluble
- solubility in ethanol: soluble
- solubility in methanol: soluble
- solubility in water: soluble

SMILES: CC[C@H](C)C(=O)O[C@H]1C[C@H](O)C=C2C=C[C@H](C)[C@H](CC[C@@H](O)C[C@@H](O)CC(=O)O)[C@H]21 [Pravastatin]
- solubility in acetone: practically insoluble
- solubility in acetonitrile: practically insoluble
- solubility in chloroform (chloroform): practically insoluble
- solubility in ether (ether): practically insoluble
- solubility in isopropanol (isopropanol): slightly soluble

SMILES: CC(C)n1c(/C=C/C(O)CC(O)CC(=O)O)c(-c2ccc(F)cc2)c2ccccc21 (stereo not drawn) [Fluvastatin]
- food effect on absorption / uptake [1]: reduces the rate but not the extent of absorption
- solubility in ethanol: soluble
- solubility in methanol: soluble
- solubility in water: soluble
